Results on 38 molecules are retold here after patent publication US8846655B2, “4-substituted-2-phenoxy-phenylamine delta opioid receptor modulators” (Janssen Pharmaceutica, NV, priority 2009, dated 2014).

In one experiment the target is T1, mu opioid receptor (Rattus norvegicus, UniProt P33535).
T1 construct: the forebrains were homogenized in Tris buffer in a Teflon®-glass homogenizer; from tissue; host or cells: rat forebrain membrane homogenate (male Wistar rats)
Put plainly: Rat brain mu opioid receptor binding assay. The conditions noted are these: rat forebrain membranes, ~0.8 nM [3H]DAMGO; read-out: μ-binding Ki.

In a further experiment the target is T2, δ-opioid receptor (Mus musculus, UniProt P32300).
T2 construct: NG108-15 cell membranes were purchased from Applied Cell Sciences (Rockville, Md.)
Description: [35S]GTPγS δ-opioid receptor functional assay (EC50, relative efficacy, % inhibition). It counts as biochemical.

In experiment [1] the target is T3, delta opioid receptor (Rattus norvegicus, UniProt P33533).
T3 construct: the forebrains were homogenized in Tris buffer in a Teflon®-glass homogenizer; from tissue; host or cells: rat forebrain membrane homogenate (male Wistar rats)
Description: Rat brain delta opioid receptor binding assay. The settings on record: rat forebrain membranes, 0.25 nM [3H]naltrindole; read-out: δ-binding (Naltrindole ligand) Ki. As to the method:
Procedure: Male, Wistar rats (150-250 g, VAF, Charles River, Kingston, N.Y.) were killed by CO2, and their brains were removed and placed immediately in ice cold Tris HCl buffer (50 mM, pH 7.4). The forebrains were separated from the remainder of the brain by a coronal transection, beginning dorsally at the colliculi and passing ventrally through the midbrain-pontine junction. After dissection, the forebrains were homogenized in Tris buffer in a Teflon®-glass homogenizer. The homogenate was diluted to a concentration of 1 g of forebrain tissue per 80 mL Tris and centrifuged at 39,000×g for 10 min. The pellet was resuspended in the same volume of Tris buffer containing 5 mM MgCl2 with several brief pulses from a Polytron homogenizer. […] To each sample area 2×50 μL of Betaplate Scint scintillation fluid (LKB) was added and the radioactivity was quantified on a LKB (Wallac) 1205 BetaPlate liquid scintillation counter.
Analysis: The data from the scintillation counter were used to calculate either the % inhibition compared to control binding (when only a single concentration of test compound was evaluated) or a K1 value (when a range of concentrations was tested). Percent inhibition was calculated as: [(total dpm-test compound dpm)/(total dpm-nonspecific dpm)]*100. Kd and Ki values were calculated using GraphPad PRISM data analysis program.

Experiment [2] has as its target T4, delta opioid receptor (Mus musculus, UniProt P32300).
T4 construct: NG108-15 cell membranes were purchased from Applied Cell Sciences (Rockville, Md.); host or cells: NG108-15 cell membranes (purchased)
Put plainly: [35S]GTPγS binding assay in NG108-15 cell membranes (delta opioid functional assay), 200 nM screen. The experiment is classed as biochemical. The settings on record: 200 nM compound; relative to calculated max of SNC80 dose response. As to the method: Methods: NG108-15 cell membranes were purchased from Applied Cell Sciences (Rockville, Md.). 5 mg/mL of membrane protein suspended in 10 mM TRIS-HCl pH 7.2, 2 mM EDTA, 10% sucrose. Membranes were maintained at 4-8° C. A 1 mL volume of membranes was added into 10 mL cold binding assay buffer. The assay buffer contained 50 mM Tris, pH 7.6, 5 mM MgCl2, 100 mM NaCl, 1 mM DTT and 1 mM EGTA. The membrane suspension was homogenized twice with a Polytron, and centrifuged at 3000 rpm for 10 min. The supernatant was then centrifuged at 18,000 rpm for 20 min. Ten mL assay buffer was added into the pellet containing tube. The pellet and buffer were mixed with a Polytron.
Incubation procedure: The pellet membranes (75 μg/mL) were preincubated with SPA (10 mg/mL) at 25° C. for 45 min in the assay buffer. The SPA (5 mg/mL) coupled with membranes (37.5 μg/mL) was then incubated with 0.1 nM [^35S] GTPγS in the same Tris buffer containing 100 μM GDP in total volume of […]. 200 nM of receptor agonists was used to stimulate [^35S]-GTPγS binding. The basal binding was tested in the absence of agonists and non-specific binding was tested in the presence of 10 μM unlabeled GTPγS.
Data % of Basal=(stimulated−non specific)*100/(basal−non specific). Relative Efficacy of a compound at 200 nM=(% of Basal of test compound at 200 nM)/(Calculated Max of SNC80 dose response. Curve in prism).

The subject of a further experiment is mice. Put plainly: Mouse Graded Abdominal Irritant Test (GrAIT). The conditions noted are these: 10% Solutol, 30 min pretreatment. It counts as in vivo. As to the method: Test compound or vehicle was administered s.c. or p.o. to mice. Following the pretreatment time, an i.p. injection of 0.6% of acetic acid in 0.5 mL was administered. Five min after acetic acid administration, mice were placed into clear chambers and were continuously observed for 5 min. Behavioral responses including twisting and elongation of the body that extended through the hindlimbs were counted and averaged for the group of animals over the observation period.

Bounds are passed on as bounds.

T1 sequence (P33535 whole entry): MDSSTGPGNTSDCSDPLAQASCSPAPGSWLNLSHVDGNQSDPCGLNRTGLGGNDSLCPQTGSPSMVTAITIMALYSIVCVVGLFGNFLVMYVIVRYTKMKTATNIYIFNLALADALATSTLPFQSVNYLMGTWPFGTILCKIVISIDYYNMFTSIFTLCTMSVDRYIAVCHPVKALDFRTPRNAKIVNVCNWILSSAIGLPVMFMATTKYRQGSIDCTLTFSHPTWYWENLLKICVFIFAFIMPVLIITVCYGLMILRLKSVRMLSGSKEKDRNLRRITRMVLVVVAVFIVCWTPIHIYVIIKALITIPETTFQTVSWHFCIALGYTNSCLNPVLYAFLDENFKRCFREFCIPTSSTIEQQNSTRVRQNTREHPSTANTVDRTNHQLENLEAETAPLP
T2 sequence (P32300 whole entry): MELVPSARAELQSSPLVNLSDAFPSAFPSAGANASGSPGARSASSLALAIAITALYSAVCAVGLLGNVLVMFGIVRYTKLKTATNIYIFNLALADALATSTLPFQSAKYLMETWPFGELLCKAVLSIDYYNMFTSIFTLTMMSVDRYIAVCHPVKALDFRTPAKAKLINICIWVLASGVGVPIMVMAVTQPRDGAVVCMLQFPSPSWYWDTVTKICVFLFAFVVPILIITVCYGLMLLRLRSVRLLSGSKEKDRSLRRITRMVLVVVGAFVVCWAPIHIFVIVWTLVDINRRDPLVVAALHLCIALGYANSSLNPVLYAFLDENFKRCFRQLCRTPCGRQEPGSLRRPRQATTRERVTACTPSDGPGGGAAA
T4 sequence (P32300 whole entry): as above
T3 sequence (P33533 whole entry): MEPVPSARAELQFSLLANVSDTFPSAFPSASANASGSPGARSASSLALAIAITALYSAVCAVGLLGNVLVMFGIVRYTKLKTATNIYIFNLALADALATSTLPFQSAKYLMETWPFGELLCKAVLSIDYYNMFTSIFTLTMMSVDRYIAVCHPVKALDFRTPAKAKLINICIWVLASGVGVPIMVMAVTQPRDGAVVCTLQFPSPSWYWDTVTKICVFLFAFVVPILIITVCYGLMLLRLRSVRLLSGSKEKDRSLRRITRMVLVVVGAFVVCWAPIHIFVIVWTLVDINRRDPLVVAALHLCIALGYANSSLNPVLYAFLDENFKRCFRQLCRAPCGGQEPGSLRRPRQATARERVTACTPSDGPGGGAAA
Procedure for mu opioid receptor: Procedure: Male, Wistar rats (150-250 g, VAF, Charles River, Kingston, N.Y.) were killed by CO2, and their brains were removed and placed immediately in ice cold Tris HCl buffer (50 mM, pH 7.4). The forebrains were separated from the remainder of the brain by a coronal transection, beginning dorsally at the colliculi and passing ventrally through the midbrain-pontine junction. After dissection, the forebrains were homogenized in Tris buffer in a Teflon®-glass homogenizer. The homogenate was diluted to a concentration of 1 g of forebrain tissue per 80 mL Tris and centrifuged at 39,000×g for 10 min. The pellet was resuspended in the same volume of Tris buffer containing 5 mM MgCl2 with several brief pulses from a Polytron homogenizer. This particulate preparation was used for the mu opioid binding assays.
Procedure for δ-opioid receptor: Incubation procedure: The pellet membranes (75 μg/mL) were preincubated with SPA (10 mg/mL) at 25° C. for 45 min in the assay buffer. […] GTPγS in the same Tris buffer containing 100 μM GDP in total volume of 200 pt. 200 nM of receptor agonists was used to stimulate [^35S]-GTPγS binding. The basal binding was tested in the absence of agonists and non-specific binding was tested in the presence of 10 μM unlabeled GTPγS.
Compounds were tested for function as antagonists by evaluating their potential to inhibit agonist-stimulated GTPγS binding. Radioactivity was quantified on a Packard TopCount.

The Ki is the dissociation constant of the complex between target and ligand, obtained from inhibition or displacement. Take `COc1ccc(Oc2cc(CCc3ccccc3)ccc2NC[C@@H]2CCCN2)cc1` [Cpd 5]: the Ki on mu opioid receptor is above 10 µM.

On to `CCN(CC)C(=O)c1cccc(Oc2cc(-c3ccccc3)ccc2NC[C@@H]2CCCN2)c1` [Cpd 34], for which the Ki at mu opioid receptor is above 10 µM.

Regarding `COc1ccc(Oc2cc(-c3cccc4ccccc34)ccc2NC[C@@H]2CCCN2)cc1` [Cpd 37], the Ki on mu opioid receptor was above 10 µM.

With `Clc1cccc(Cl)c1Oc1cc(-c2ccccc2)ccc1NC[C@@H]1CCCN1` [Cpd 18], the inhibition constant Ki at mu opioid receptor is above 10 µM. On δ-opioid receptor, the “GTγPS δ-opioid receptor Rel Efficacy” value was determined as 0.763.

For the molecule `Oc1ccc(Oc2cc(-c3cccnc3)ccc2NC[C@@H]2CCCN2)cc1` [Cpd 45, (S)-4-{5-Pyridin-3-yl-2-[(pyrrolidin-2-ylmethyl)-amino]-phenoxy}-phenol], the “GTγPS δ-opioid receptor Rel Efficacy” value on δ-opioid receptor is 0.627.

The term EC50 denotes the concentration needed to bring the measured effect to its halfway point. Low readings indicate a more potent agent, high ones a less potent agent. In the case of `COc1ccc(Oc2cc(-c3ccncc3)ccc2NC[C@@H]2CCCN2)cc1` [Cpd 38], on mu opioid receptor, the Ki was 4.36 µM. Also, at δ-opioid receptor, a half-maximal response (EC50) required 478 nM and the “GTγPS δ-opioid receptor Rel Efficacy” value was 0.8323. In addition, on δ-opioid receptor (read-out: GTPγS δ-opioid receptor % Inh @10 μM), the inhibition at 10 µM is 16.4%. In addition, the Ki at delta opioid receptor [1] was 15.5 nM.

`COc1ccc(Oc2cc(-c3cncc(C#N)c3)ccc2NC[C@@H]2C[C@@H](F)CN2)cc1` [Cpd 24, (2S,4R)-5-[4-[(4-Fluoro-pyrrolidin-2-ylmethyl)-amino]-3-(4-methoxy-phenoxy)-phenyl]-nicotinonitrile]: the “GTPγS δ-RelEfficacy @200 nM” value at delta opioid receptor [2] is recorded as 1.01. Also, at δ-opioid receptor, the “GTγPS δ-opioid receptor Rel Efficacy” value was found to be 1.0158.

Take `COc1ccc(Oc2cc(-c3cccnc3)ccc2NC[C@@H]2CCCN2)cc1` [Cpd 39]: on δ-opioid receptor, the “GTγPS δ-opioid receptor Rel Efficacy” value is reported as 0.9245.

Take `COc1cccc(Oc2cc(-c3ccccc3)ccc2NC[C@@H]2CCCN2)c1` [Cpd 15]: the Ki on mu opioid receptor was above 10 µM.

As to `COc1ccc(Oc2cc(-c3cncc(C)c3)ccc2NC[C@@H]2C[C@@H](F)CN2)cc1` [Cpd 28], at δ-opioid receptor, the “GTγPS δ-opioid receptor Rel Efficacy” value is reported as 0.8756.

Turning to `COc1ccc(Oc2ccc(NC[C@@H](N)CO)c(Oc3ccc(OC)cc3)c2)cc1` [Cpd 55], the Ki at mu opioid receptor was above 10 µM.

Turning to `COc1ccc(Oc2cc(-c3cncc(F)c3)ccc2NC[C@@H]2C[C@@H](F)CN2)cc1` [Cpd 25], the “GTPγS δ-RelEfficacy @200 nM” value at delta opioid receptor [2] is 0.78. Also, the “GTγPS δ-opioid receptor Rel Efficacy” value on δ-opioid receptor is reported as 1.0217.

Consider `Fc1ccc(Oc2cc(-c3ccccc3)ccc2NC[C@@H]2CCCN2)cc1` [Cpd 16], for which, at mu opioid receptor, the Ki is above 10 µM.

In the case of `CCN(CC)C(=O)c1ccc(NC[C@@H]2CCCN2)c(Oc2ccccc2OC)c1` [Cpd 11], on mu opioid receptor, the Ki was above 10 µM.

Consider `COc1ccc(Oc2cc(-c3ccoc3)ccc2NC[C@@H]2CCCN2)cc1` [Cpd 40], for which the Ki at mu opioid receptor is above 10 µM.

On to `COC(=O)c1ccc(Oc2cc(-c3ccccc3)ccc2NC[C@@H]2CCCN2)cc1` [Cpd 20], for which the inhibition constant Ki at mu opioid receptor was above 10 µM.

With `Clc1ccc(Oc2cc(-c3ccccc3)ccc2NC[C@@H]2CCCN2)c(Cl)c1` [Cpd 22], the Ki on mu opioid receptor was above 10 µM.

As to `COc1ccc(Oc2cc(-c3cncc(C#N)c3)ccc2NC[C@@H]2CCCN2)cc1` [Cpd 44], the “GTPγS δ-RelEfficacy @200 nM” value on delta opioid receptor [2] was 0.45. In addition, on δ-opioid receptor, the “GTγPS δ-opioid receptor Rel Efficacy” value is listed as 1.1554.

Consider `COc1ccc(Oc2cc(CCc3cccc(OC)c3)ccc2NC[C@@H]2CCCN2)cc1` [Cpd 4], for which the Ki on mu opioid receptor is above 10 µM.

With `COc1ccc(Oc2cc(-c3cncc(SC)c3)ccc2NC[C@@H]2C[C@@H](F)CN2)cc1` [Cpd 26], the “GTPγS δ-RelEfficacy @200 nM” value on delta opioid receptor [2] is 0.7. Also, at δ-opioid receptor, the “GTγPS δ-opioid receptor Rel Efficacy” value stood at 1.0716.

`COc1ccc(Oc2cc(CCc3ccc(F)cc3)ccc2NC[C@@H]2CCCN2)cc1` [Cpd 6]: the Ki on mu opioid receptor is above 10 µM.

Turning to `COc1ccc(Oc2cc(-c3cncnc3)ccc2NC[C@@H]2CCCN2)cc1` [Cpd 42], on delta opioid receptor [2], the “GTPγS δ-RelEfficacy @200 nM” value is 0.39.

Consider `c1ccc(Oc2cc(-c3ccccc3)ccc2NC[C@@H]2CCCN2)cc1` [Cpd 14], for which the Ki at mu opioid receptor is above 10 µM.

On to `COc1ccc(Oc2cc(-c3ccccc3)ccc2N2CCNCC2)cc1` [Cpd 46, 1-[3-(4-Methoxy-phenoxy)biphenyl-4-yl]piperazine], for which the Ki at mu opioid receptor is above 10 µM.

Turning to `CCN(CC)C(=O)/C=C/c1ccc(NC[C@@H]2CCCN2)c(Oc2ccc(OC)cc2)c1` [Cpd 1, (2E)-N,N-Diethyl-3-[3-(4-methoxyphenoxy)-4-{[(2S)-pyrrolidin-2-ylmethyl]amino}phenyl]prop-2-enamide], in the experiment with mice (30 mg/kg s.c.), the “# abdominal stretches (cpd)” value came to 10.9. For the same molecule, at δ-opioid receptor, the “GTγPS δ-opioid receptor Rel Efficacy” value is 0.8328.

Turning to `COc1ccc(Oc2cc(-c3cncc(OC)c3)ccc2NC[C@@H]2C[C@@H](F)CN2)cc1` [Cpd 27], the Ki on mu opioid receptor is above 10 µM.

With `COc1ccc(Oc2cc(CCc3cccc(F)c3)ccc2NC[C@@H]2CCCN2)cc1` [Cpd 7], at mu opioid receptor, the Ki was above 10 µM.

`COC(=O)c1cccc(Oc2cc(-c3ccccc3)ccc2NC[C@@H]2CCCN2)c1` [Cpd 21]: at mu opioid receptor, the Ki was above 10 µM.

In the case of `COc1ccc(Oc2cc(-c3ccccc3)ccc2NC[C@@H]2CCCN2)cc1` [Cpd 35, (S)-[3-(4-Methoxy-phenoxy)-biphenyl-4-yl]-pyrrolidin-2-ylmethyl-amine], the Ki on mu opioid receptor was above 10 µM.

Consider `FC(F)(F)Oc1ccc(Oc2cc(-c3ccccc3)ccc2NC[C@@H]2CCCN2)cc1` [Cpd 17], for which the Ki on mu opioid receptor was above 10 µM.

In the case of `CCN(CC)C(=O)CCc1ccc(NC[C@@H]2CCCN2)c(Oc2ccc(OC)cc2)c1` [Cpd 2, N,N-Diethyl-3-[3-(4-methoxyphenoxy)-4-{[(2S)-pyrrolidin-2-ylmethyl]amino}phenyl]propanamide], the “GTγPS δ-opioid receptor Rel Efficacy” value on δ-opioid receptor is given as 0.8333.

Consider `COc1ccc(Oc2cc(-c3cncc(F)c3)ccc2NC[C@@H]2CCCN2)cc1` [Cpd 43], for which the “GTPγS δ-RelEfficacy @200 nM” value at delta opioid receptor [2] is 0.43. Further, the “GTγPS δ-opioid receptor Rel Efficacy” value at δ-opioid receptor turned out to be 1.0908.

In the case of `CCN(CC)C(=O)c1ccc(NC[C@@H]2CCCN2)c(Oc2ccc(OC)cc2)c1` [Cpd 10], the “# abdominal stretches (cpd)” value is 19 in the experiment with mice (30 mg/kg p.o.), 11 in the experiment with mice (30 mg/kg s.c.), 17.9 in the experiment on mice (100 mg/kg p.o.) and 21.2 in the experiment on mice (300 mg/kg p.o.).

For `NC(=O)c1cccc(Oc2cc(-c3ccccc3)ccc2NC[C@@H]2CCCN2)c1` [Cpd 30], the “GTγPS δ-opioid receptor Rel Efficacy” value at δ-opioid receptor is given as 0.2668.

For the molecule `N#Cc1cccc(Oc2cc(-c3ccccc3)ccc2NC[C@@H]2CCCN2)c1` [Cpd 13], the Ki at mu opioid receptor was above 10 µM.

Regarding `O=C(O)c1cccc(Oc2cc(-c3ccccc3)ccc2NC[C@@H]2CCCN2)c1` [Cpd 32], at mu opioid receptor, the Ki is above 10 µM.

As to `COc1ccc(Oc2cc(-c3ccsc3)ccc2NC[C@@H]2CCCN2)cc1` [Cpd 41], the Ki at mu opioid receptor is above 10 µM.

Turning to `CNCCNc1ccc(Oc2ccc(OC)cc2)cc1Oc1ccc(OC)cc1` [Cpd 63, N-[2,4-Bis-(4-methoxy-phenoxy)-phenyl]-N′-methyl-ethane-1,2-diamine], the Ki on mu opioid receptor is above 10 µM.
